Assay results as given in ChEMBL document CHEMBL4613261, “Metabolic and Pharmaceutical Aspects of Fluorinated Compounds” (J Med Chem, 2020).

Target: T1, Lysine decarboxylase (Hafnia alvei) (UniProt P05033)
T1 sequence (whole entry): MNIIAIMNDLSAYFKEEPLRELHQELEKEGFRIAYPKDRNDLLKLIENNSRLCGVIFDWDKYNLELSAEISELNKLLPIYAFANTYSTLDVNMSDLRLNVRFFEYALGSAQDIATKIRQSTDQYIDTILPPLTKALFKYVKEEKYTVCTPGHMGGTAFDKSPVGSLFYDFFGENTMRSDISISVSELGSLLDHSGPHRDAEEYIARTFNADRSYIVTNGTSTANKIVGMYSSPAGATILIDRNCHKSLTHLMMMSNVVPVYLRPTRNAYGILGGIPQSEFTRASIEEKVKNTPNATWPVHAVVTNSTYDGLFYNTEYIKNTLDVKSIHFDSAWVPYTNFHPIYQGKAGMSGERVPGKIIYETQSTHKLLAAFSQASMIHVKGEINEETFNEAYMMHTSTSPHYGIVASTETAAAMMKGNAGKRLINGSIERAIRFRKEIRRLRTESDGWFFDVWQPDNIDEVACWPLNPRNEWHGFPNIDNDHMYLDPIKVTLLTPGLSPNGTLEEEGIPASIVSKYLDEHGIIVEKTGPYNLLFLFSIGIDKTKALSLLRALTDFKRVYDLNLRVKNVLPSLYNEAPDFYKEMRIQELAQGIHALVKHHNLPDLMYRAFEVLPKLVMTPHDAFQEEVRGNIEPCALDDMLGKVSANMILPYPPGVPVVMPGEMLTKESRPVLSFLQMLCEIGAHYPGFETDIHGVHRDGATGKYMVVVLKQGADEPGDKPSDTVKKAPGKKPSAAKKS
Description: Time dependent inhibition of Hafnia alvei lysine decarboxylase assessed as inactivation half life using L-lysine by Kitz-Wilson analysis

SMILES	T1/2
C=C(F)[C@](N)(CCCCN)C(=O)O	2.8 min
C=C(F)[C@@](N)(CCCCN)C(=O)O	3.6 min
